According to ChEMBL document CHEMBL3875212, “Novel thrombopoietin mimetic peptides bind c-Mpl receptor: Synthesis, biological evaluation and molecular modeling” (Bioorg Med Chem, 2017):
Active and inactive are the calls of the source. No cut-off for these calls is given here. Residues, ends and D or L forms follow the SMILES beside them.

target: T1, Thrombopoietin receptor (Homo sapiens) (UniProt P40238); assay: Binding affinity to c-Mpl (unknown origin) expressed in […] NIH-3T3 cells after 48 hrs by dual-glo luciferase reporter gene assay relative to control; assay type: cell-based; conditions: NIH3T3
T1 sequence (whole entry): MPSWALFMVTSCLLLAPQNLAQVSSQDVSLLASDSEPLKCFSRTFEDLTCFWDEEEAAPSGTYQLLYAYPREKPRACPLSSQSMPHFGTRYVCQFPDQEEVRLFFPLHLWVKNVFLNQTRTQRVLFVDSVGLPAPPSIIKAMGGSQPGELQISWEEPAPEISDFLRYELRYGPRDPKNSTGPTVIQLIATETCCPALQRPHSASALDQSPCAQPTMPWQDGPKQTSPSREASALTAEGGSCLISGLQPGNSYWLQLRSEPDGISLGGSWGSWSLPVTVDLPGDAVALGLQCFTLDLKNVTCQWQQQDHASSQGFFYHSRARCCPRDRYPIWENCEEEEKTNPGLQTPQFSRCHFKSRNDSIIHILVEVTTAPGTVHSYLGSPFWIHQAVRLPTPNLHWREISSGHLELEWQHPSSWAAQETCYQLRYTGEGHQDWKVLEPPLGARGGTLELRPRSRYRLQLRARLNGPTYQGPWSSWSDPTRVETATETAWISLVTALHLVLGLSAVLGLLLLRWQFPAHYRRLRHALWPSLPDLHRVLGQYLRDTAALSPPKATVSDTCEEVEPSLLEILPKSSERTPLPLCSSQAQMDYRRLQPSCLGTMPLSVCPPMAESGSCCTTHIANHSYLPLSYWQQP

Activity, active:
CC[C@H](C)[C@H](N)C(=O)N[C@@H](CCC(=O)O)C(=O)NCC(=O)N1CCC[C@H]1C(=O)N[C@H](C(=O)N[C@@H](CC(C)C)C(=O)N[C@@H](CCCNC(=N)N)C(=O)N[C@@H](CCC(N)=O)C(=O)N[C@@H](Cc1c[nH]c2ccccc12)C(=O)N[C@@H](CC(C)C)C(=O)N[C@@H](C)C(=O)N[C@@H](C)C(=O)N[C@@H](CCCNC(=N)N)C(=O)N[C@@H](C)C(=O)NCC(=O)NCC(=O)NCC(=O)NCC(=O)N[C@@H](CO)C(=O)NCC(=O)NCC(=O)NCC(=O)N[C@@H](CO)C(=O)NCC(=O)N[C@H](C(=O)N[C@@H](CCC(=O)O)C(=O)NCC(=O)N1CCC[C@H]1C(=O)N[C@H](C(=O)N[C@@H](CC(C)C)C(=O)N[C@@H](CCCNC(=N)N)C(=O)N[C@@H](CCC(N)=O)C(=O)N[C@@H](Cc1c[nH]c2ccccc12)C(=O)N[C@@H](CC(C)C)C(=O)N[C@@H](C)C(=O)N[C@@H](C)C(=O)N[C@@H](CCCNC(=N)N)C(=O)N[C@@H](C)C(=O)O)[C@@H](C)O)[C@@H](C)CC)[C@@H](C)O (H-IEGPTLRQWLAARAGGGGSGGGSGIEGPTLRQWLAARA-OH)
CC[C@H](C)[C@H](N)C(=O)N[C@@H](CCC(=O)O)C(=O)NCC(=O)N1CCC[C@H]1C(=O)N[C@H](C(=O)N[C@@H](CC(C)C)C(=O)N[C@@H](CCCNC(=N)N)C(=O)N[C@@H](CCC(N)=O)C(=O)N[C@@H](Cc1c[nH]c2ccccc12)C(=O)N[C@@H](CC(C)C)C(=O)N[C@@H](C)C(=O)N[C@@H](C)C(=O)N[C@@H](CCCNC(=N)N)C(=O)N[C@@H](C)C(=O)NCC(=O)NCC(=O)NCC(=O)N[C@@H](CO)C(=O)NCC(=O)N[C@H](C(=O)N[C@@H](CCC(=O)O)C(=O)NCC(=O)N1CCC[C@H]1C(=O)N[C@H](C(=O)N[C@@H](CC(C)C)C(=O)N[C@@H](CCCNC(=N)N)C(=O)N[C@@H](CCC(N)=O)C(=O)N[C@@H](Cc1c[nH]c2ccccc12)C(=O)N[C@@H](CC(C)C)C(=O)N[C@@H](C)C(=O)N[C@@H](C)C(=O)N[C@@H](CCCNC(=N)N)C(=O)N[C@@H](C)C(=O)O)[C@@H](C)O)[C@@H](C)CC)[C@@H](C)O (H-IEGPTLRQWLAARAGGGSGIEGPTLRQWLAARA-OH)
CC[C@H](C)[C@H](N)C(=O)N[C@@H](CCC(=O)O)C(=O)NCC(=O)N1CCC[C@H]1C(=O)N[C@H](C(=O)N[C@@H](CC(C)C)C(=O)N[C@@H](CCCNC(=N)N)C(=O)N[C@@H](CCC(N)=O)C(=O)N[C@@H](Cc1c[nH]c2ccccc12)C(=O)N[C@@H](CC(C)C)C(=O)N[C@@H](C)C(=O)N[C@@H](C)C(=O)N[C@@H](CCCNC(=N)N)C(=O)N[C@@H](C)C(=O)NCC(=O)NCC(=O)N1CCC[C@H]1C(=O)N[C@@H](CO)C(=O)NCC(=O)N[C@H](C(=O)N[C@@H](CCC(=O)O)C(=O)NCC(=O)N1CCC[C@H]1C(=O)N[C@H](C(=O)N[C@@H](CC(C)C)C(=O)N[C@@H](CCCNC(=N)N)C(=O)N[C@@H](CCC(N)=O)C(=O)N[C@@H](Cc1c[nH]c2ccccc12)C(=O)N[C@@H](CC(C)C)C(=O)N[C@@H](C)C(=O)N[C@@H](C)C(=O)N[C@@H](CCCNC(=N)N)C(=O)N[C@@H](C)C(=O)O)[C@@H](C)O)[C@@H](C)CC)[C@@H](C)O (H-IEGPTLRQWLAARAGGPSGIEGPTLRQWLAARA-OH)
